Experiments:
A. niger = experiment: accelerated shelf-life testing (ASLT): time of appearance (TOA) of A. niger on inoculated breadcrumbs; assay type: cell-based, Aspergillus niger
Procedure: (§1) Breads were made by mixing the dough ingredients from Table 1. The wt.% for several ingredients are given based on flour weight (Flour Weight Based, FWB). For the prepared recipes the difference with total dry weight is insubstantial. The following breads were prepared: a control without any preservatives, a reference containing 0.3% flour weight based (FWB) calcium propionate (CalPro), and a bread containing 1% chitosan (KitoZyme, Belgium) with number average MW of 15 kDa and degree of deacetylation (DDA) of 70%. The chitosan sample was obtained from cell wall of A. niger (KitoZyme, Belgium). Ingredients were mixed using a spiral mixer for 10 minutes. Afterwards the dough for each trial was divided into three pieces of 520 g, rounded manually, and placed into bread tins. The dough pieces were placed in a proofing cabinet to rise at 40 °C and 80% relative humidity until they reach similar height (fermentation time between 60-70 min). The breads were baked for 22 minutes in a deck oven at 260 (bottom) and 230 (top) °C. [Table 1] Bread recipes
(§2) Following baking, the breads were cooled in a HEPA-filtered chamber for 90 min. One bread was used for pH measurement and two breads were subjected to ASLT.
To perform ASLT, the remaining two breads were sliced to 13 mm slices. The crumb (inner part of breads) of three random slices from each bread were cut out using a cookie cutter (3.2 cm diameter) and placed in sterile 6-well plates (2x breads x 3 slices). Two 6-well plates were prepared per bread type. Each bread piece in a 6-well plate was inoculated with 3 aliquots of ±500 spores ([…]) of either A. niger or P. paneum. Therefore, 18 spots of each mould were inoculated per trial (6 bread piece × 3 aliquots). Freeze-dried spores were used in all experiments. The inoculated breads incubated at room temperature of around 21 °C until visible mould appearance. The appearance of the moulds was imaged by taking photographs. The images were inspected visually, and the TOA was defined as mould appearance in hours after mould inoculation. […]

P. paneum = experiment: accelerated shelf-life testing (ASLT): time of appearance (TOA) and growth pattern of P. paneum on inoculated breadcrumbs; assay type: cell-based, Penicillium paneum; settings: CalPro 0.3% FWB; tin bread crumb, ±500 spores; Figure 1
Procedure: as §1, §2
To perform ASLT, the remaining two breads were sliced to 13 mm slices. […]

[1] = cited from earlier work

| Structure (SMILES) | effectiveness against A. niger, CalPro compared to chitosan (A. niger; CalPro 0.3% FWB vs chitosan 1% FWB) | increased TOA of A. niger compared to control bread without preservatives (A. niger; CalPro 0.3% FWB, tin bread crumb, ±500 spores, Figure 1A) [%] | increase in TOA of A. niger compared to control without preservative (A. niger; CalPro alone 0.3% FWB, Figure 2 A-B) | increased TOA of P. paneum compared to control bread without preservatives (P. paneum) [%] | pKa [1] |
| --- | --- | --- | --- | --- | --- |
| CCC(=O)[O-].CCC(=O)[O-].[Ca+2] [CalPro, calcium propionate] | more effective against A. niger | 80 | approximately 50% | 17 | – |
| CC(O)C(=O)O (stereo not drawn) [lactic acid] | – | – | – | – | about 3.85 |
| C/C=C/C=C/C(=O)O [sorbic acid] | – | – | – | – | about 4.76 |
